Results reported in US10925858B2, “S-nitrosoglutathione (GSNO) and GSNO reductase inhibitors for use in therapy” (MUSC FOUNDATION FOR RESEARCH DEVELOPMENT, priority 2017, dated 2021).

Columns and labels:
[1] = system: IFN-γ, IL-4, IL-17, IL-10; assay: ELISA of CD4+ T cell subset specific cytokines in culture media of CNS derived lymphocytes of EAE mice; type: in vivo, C57BL/6 mice; conditions: N6022 1 mg/kg/day
Description: Female C57BL/6 mice of 8-12 weeks of age, purchased from Jackson Laboratory, were provided with food and water ad libitum and were kept in pathogen free animal care facility of Medical University of South Carolina (MUSC) throughout the study. All procedures were conducted in accordance with accepted standards of humane care as approved by the Institutional Animal Care and Use Committee (Approved number: AR #1644). EAE was induced as described previously (Nath et al., 2009). Briefly, mice were immunized subcutaneously in the flank regions with MOG35-55 peptide (MOG; 200 μg; Peptide International) emulsified (1:1) in 100 ul complete Freund's adjuvant (CFA) on day 0 and day 7. Additionally, 300 ng of Pertussis toxin (Sigma-Aldrich, St. Louis, Mo.) was given on day 0 and day 2 by i.p. injection. Pertussis toxin used as per the standardized protocol reported by us and other investigators for the induction of EAE (Nath et al., 2009). Similarly, healthy control group received subcutaneous injection of PBS and CFA emulsion on day 0 and day 7. Clinical signs of EAE were scored by examiners blinded to experimental treatments using the following scale: 0=no clinical signs of disease; 1=piloerection and sluggish; 2=limp tail (ataxia); 2.5=ataxia with partial hind limb paralysis; 3=full paralysis of hind limb; 3.5=full paralysis of hind limb with paralysis of one fore limb; 4=full paralysis of two limbs; 4.5=moribund stage; 5=death. […] The drug treatments were continued till the termination of the study (day 41 post immunization). EAE animals without drug treatment received PBS. Likewise, healthy controls received vehicle.
Fluorescence flow cytometry analysis for each subset of CD4+ T cells (TH1, TH2, TH17, CD4+CD25+ FOXP3+ Treg, and CD4+CD25+ FOXP3− Treg) were performed based on our previous report with modification (Nath et al., 2004). Briefly, control mice, EAE mice. EAE mice treated with GSNO. […] Following the preparation of single cell suspension, red blood cells were lysed with Pharma lyse buffer (BD Pharmingen™) and the remaining spleen cells were washed with RPMI 1640. The isolated CD4+ T cells were then resuspended with complete RPMI-media in 12-well plates (5×10^6 cells' 2 ml per well) containing MOG peptide (25 μg/ml) for 48 hrs. […] The cell pellets were washed with cell staining solution (ebioscience, Waltham, Mass. USA) and stained with fluorescence labeled antibody specific to IFN-γ for TH1. […] The cells were counted and analyzed using Beackman Coulter instrument (Beckman Coulter, Inc., Brea, Calif., USA).
ELISA assay was performed for analysis of CD4+ T cell subset specific cytokines released from cultured cells or spinal cord tissues. […] The equal amounts of proteins were analyzed for ELISA for IFN-γ. […]

[2] = system: tight junction proteins (ZO-1, Occludin, Claudin-5); assay: Immunofluorescence of tight junction proteins in isolated microvessels of diabetic mice; type: in vivo
Description: Male laca mice weighing between 28-32 g were procured from the Central Animal House, Panjab University, Chandigarh. The animals were acclimatized and were fed with standard pellet diet and water ad libitum. The experimental protocols were approved by the Institutional Ethics Committee and were conducted according to Indian National Science Academy (INSA) guidelines for the use and care of experimental animals. The animals were divided into four groups: (i) Control animals received phosphate buffered saline (PBS) throughout the study; (ii) Control+GSNO animals were administered with GSNO 100 μg/kg body weight orally, dissolved in PBS after every 24 h for 8 weeks; (iii) Diabetic animals were injected with STZ at a dose of 40 mg/kg body weight intraperitoneally for 5 days dissolved in 0.1 mol/L citrate buffer, pH 4.5 and Diabetic+GSNO mice were administered GSNO 100 μg/kg body weight orally dissolved in PBS after every 24 h for 8 weeks after the induction of diabetes. Animals were assessed weekly for development of diabetic encephalopathy in terms of memory deficits. All experimental procedures were done on mice at the end of study.
The microvessels were isolated by the method described by Brooks et al., (2005). Brain tissue was homogenized in microisolation buffer (103 mM NaCl, 4.7 mM KCl, 2.5 mM CaCb, 1.2 mM KH2PO4, 1.2 mM MgSO4, 15 mM HEPES, 2.5 mM NaHCO3, 10 mM D-glucose, 1 mM sodium pyruvate and 10 g/L dextran (64,000 mol wt), pH 7.4) and equal amount of 26% (w/v) dextran was added. The sample was then centrifuged at 5600 g for 10 min and pellets obtained were resuspended in microisolation buffer. Then the suspension was filtered through 70 μm filter (BD Biosciences, Gurgaon, India). […]
Isolated microvessels were resuspended in PBS and allowed to attach to polylysine-coated slides for 30 min at 37° C. and fixed at 95° C. for 10 min. […] After placement and sealing of coverslips, photographs were taken with 40× objective on a Nikon TE-300 fluorescence microscope with a fluorescein filter (Schulze & Firth 1993).

[3] = microvessels of GSNO supplemented diabetic animals vs untreated diabetic group

SMILES | IFN-γ in culture media of CNS derived lymphocytes [1] | IL-4 release of CNS derived lymphocytes [1] | IL-17 in culture media of CNS derived lymphocytes [1] | IL-10 expression of CNS derived lymphocytes ([1]; vs control levels) | claudin-5 fluorescent intensity ([2]; GSNO treated diabetic animals) | fluorescent intensity for ZO-1 [2, 3] | fluorescent intensity for occludin [2, 3]
Cc1cc(C(N)=O)ccc1-n1c(CCC(=O)O)ccc1-c1ccc(-n2ccnc2)cc1 [N6022, reference compound] | decreased | increased | decreased | increased | – | – | –
N[C@@H](CCC(=O)N[C@@H](CSN=O)C(=O)NCC(=O)O)C(=O)O [GSNO, S-nitrosoglutathione] | – | – | – | – | No change | increased fluorescent intensity | increased fluorescent intensity
